Patent publication US12503484B2, “Androstane derivatives with activity as pure or predominantly pure stimulators of SERCA2a for the treatment of heart failure” (Seismic Pharmaceuticals, priority 2019, dated 2025)
Structures can show the parent of a compound that is named as a salt.

Key:
Estrogen ERβ = Estrogen ERβ (Homo sapiens (Human), UniProt Q92731); test: Receptor binding assay panel: Estrogen ERβ
Adrenergic α1B = Adrenergic α1B (Rattus norvegicus (Rat), UniProt P15823); test: Receptor binding assay panel: Adrenergic α1B
Sigma σ2 = Sigma σ2 (Homo sapiens (Human), UniProt Q5BJF2); test: Receptor binding assay panel: Sigma σ2
Adenosine A1 = Adenosine A1 (Homo sapiens (Human), UniProt P30542); test: Receptor binding assay panel: Adenosine A1
Sequence of Adenosine A1 (P30542 whole entry): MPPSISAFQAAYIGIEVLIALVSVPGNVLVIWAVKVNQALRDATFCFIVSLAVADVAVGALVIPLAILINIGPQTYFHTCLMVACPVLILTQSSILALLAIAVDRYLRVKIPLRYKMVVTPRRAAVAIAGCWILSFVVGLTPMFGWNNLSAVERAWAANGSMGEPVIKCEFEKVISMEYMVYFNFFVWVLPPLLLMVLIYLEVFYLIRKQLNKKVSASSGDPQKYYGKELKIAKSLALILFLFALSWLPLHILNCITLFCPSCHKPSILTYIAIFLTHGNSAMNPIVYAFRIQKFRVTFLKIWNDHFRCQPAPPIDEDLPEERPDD

hERG potassium channel = hERG potassium channel (Homo sapiens (Human), UniProt Q12809); test: Receptor binding assay panel: Potassium Channel hERG; settings: crude membrane preparations
Method: (§1) Radioligand binding to a panel of receptors was carried out by Eurofins on crude membrane preparations according to published procedures and by using appropriate reference standard (Eurofin, Taiwan, compound code CVie216-3 (1226840), study #TW04-0004235, quote #TW04-0004235-Q04, for Cvie Therapeutics Limited, Taiwan). […] was tested at the concentration of 10 μM.

[1] = biological target: Protein Tyrosine Kinase, Src (Homo sapiens (Human), UniProt P12931); test: Receptor binding assay panel: Protein Tyrosine Kinase, Src; format: biochemical
Sequence of Protein Tyrosine Kinase, Src (P12931 whole entry, looked up): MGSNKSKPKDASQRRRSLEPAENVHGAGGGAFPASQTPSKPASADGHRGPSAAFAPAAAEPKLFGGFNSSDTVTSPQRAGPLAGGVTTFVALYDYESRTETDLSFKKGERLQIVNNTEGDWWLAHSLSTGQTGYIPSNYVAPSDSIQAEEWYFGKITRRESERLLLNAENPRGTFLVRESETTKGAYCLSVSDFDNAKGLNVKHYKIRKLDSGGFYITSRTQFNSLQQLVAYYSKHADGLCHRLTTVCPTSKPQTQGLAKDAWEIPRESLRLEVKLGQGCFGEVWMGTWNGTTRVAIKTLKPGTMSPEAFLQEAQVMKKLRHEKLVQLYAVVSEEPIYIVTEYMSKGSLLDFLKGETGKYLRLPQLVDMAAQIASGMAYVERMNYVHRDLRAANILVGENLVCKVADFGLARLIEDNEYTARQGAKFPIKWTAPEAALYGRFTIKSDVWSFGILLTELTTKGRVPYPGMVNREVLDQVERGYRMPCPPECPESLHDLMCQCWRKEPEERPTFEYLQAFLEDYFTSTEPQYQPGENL

[2] = test system: Calcium Channel L-type, Dihydropyridine; test: Receptor binding assay panel: Calcium Channel L-type, Dihydropyridine; design: species or system rat; settings: 10 μM
STZ diabetic rats = test: Haemodynamics in streptozotocin diabetic rats (echocardiography); format: in vivo, rat
Method: CVie214 and CVie216 were tested in a diabetic rat model. Briefly, rats were injected with streptozotocin (STZ). After 7-9 weeks from STZ injection, rats were submitted to transthoracic echocardiographic and Doppler evaluation performed under urethane anesthesia. Two-dimensionally guided M-mode recordings were used to obtain short-axis measurements of left ventricular end-diastolic diameter (LVEDD), left ventricular end-systolic diameter (LVESD), posterior (PW) and septal (SW) diastolic wall thickness according to the American Society of Echocardiography guidelines (Lang R M et al., Eur J Echocardiography 2006, 7:79-108). Fractional shortening was calculated as FS=(LVEDD−LVESD)/LVEDD. Relative wall thickness was calculated as PWTd+IVSTd/LVEDD. Mitral inflow was measured by pulsed Doppler at the tips of mitral leaflets from an apical 4-chamber view to obtain early and late filling velocities (E, A) and deceleration time of early filling velocity (DT). The deceleration slope was calculated as E/DT ratio. The mitral deceleration index was calculated as DT/E ratio. Tissue Doppler Imaging (TDI) was evaluated from the apical 4-chamber view to record septal mitral annular movements, i.e., peak myocardial systolic (s′) and early and late diastolic velocity (e′ and a′).
After baseline hemodynamic measurements were taken, the rats were administered Digoxin, CVie214, CVie216 and compared to control. Digoxin, used as reference drug, was intravenously infused at 0.11 mg/kg/min for 15 min and echocardiographic parameters measured after 1 h. CVie214-salt and CVie216-salt were intravenously infused in STZ diabetic rats at 0.2 mg/kg/min and echocardiographic parameters were measured after 15 min and 30 min.
Tables 4-6 show the haemodynamic parameters in STZ diabetic rats for Digoxin, CVie214-salt, and Cvie216-salt.

Aldosterone = Aldosterone (Rattus norvegicus (Rat), UniProt P22199); test: Receptor binding assay panel: Aldosterone
Sequence of Aldosterone (P22199 whole entry): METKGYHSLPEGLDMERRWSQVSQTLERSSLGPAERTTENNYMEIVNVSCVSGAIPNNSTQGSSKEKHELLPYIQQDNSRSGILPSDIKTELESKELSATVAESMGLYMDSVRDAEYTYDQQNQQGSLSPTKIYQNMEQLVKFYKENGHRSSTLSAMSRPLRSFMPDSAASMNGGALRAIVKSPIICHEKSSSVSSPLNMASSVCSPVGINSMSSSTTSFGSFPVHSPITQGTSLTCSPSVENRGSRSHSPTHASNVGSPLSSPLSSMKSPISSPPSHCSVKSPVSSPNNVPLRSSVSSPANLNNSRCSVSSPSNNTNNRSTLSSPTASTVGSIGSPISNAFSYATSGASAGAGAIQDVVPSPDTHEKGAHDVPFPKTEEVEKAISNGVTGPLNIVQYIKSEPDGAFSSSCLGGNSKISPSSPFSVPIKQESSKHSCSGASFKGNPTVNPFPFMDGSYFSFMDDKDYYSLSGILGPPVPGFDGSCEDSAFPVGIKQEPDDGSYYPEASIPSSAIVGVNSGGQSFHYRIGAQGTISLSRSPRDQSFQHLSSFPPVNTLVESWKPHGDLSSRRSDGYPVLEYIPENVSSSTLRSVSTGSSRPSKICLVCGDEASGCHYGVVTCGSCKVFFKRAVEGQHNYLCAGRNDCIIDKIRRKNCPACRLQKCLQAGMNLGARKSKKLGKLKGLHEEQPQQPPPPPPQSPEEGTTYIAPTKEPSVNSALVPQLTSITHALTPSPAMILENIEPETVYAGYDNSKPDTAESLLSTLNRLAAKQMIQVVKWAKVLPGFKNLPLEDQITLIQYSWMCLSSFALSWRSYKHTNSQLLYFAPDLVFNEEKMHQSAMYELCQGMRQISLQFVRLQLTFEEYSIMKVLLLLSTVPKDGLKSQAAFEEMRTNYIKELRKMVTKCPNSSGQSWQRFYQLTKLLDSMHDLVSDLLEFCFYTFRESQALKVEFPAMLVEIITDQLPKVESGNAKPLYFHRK

Androgen (Testosterone) = Androgen (Testosterone) (Homo sapiens (Human), UniProt P10275); test: Receptor binding assay panel: Androgen (Testosterone)
Sequence of Androgen (Testosterone) (P10275 whole entry): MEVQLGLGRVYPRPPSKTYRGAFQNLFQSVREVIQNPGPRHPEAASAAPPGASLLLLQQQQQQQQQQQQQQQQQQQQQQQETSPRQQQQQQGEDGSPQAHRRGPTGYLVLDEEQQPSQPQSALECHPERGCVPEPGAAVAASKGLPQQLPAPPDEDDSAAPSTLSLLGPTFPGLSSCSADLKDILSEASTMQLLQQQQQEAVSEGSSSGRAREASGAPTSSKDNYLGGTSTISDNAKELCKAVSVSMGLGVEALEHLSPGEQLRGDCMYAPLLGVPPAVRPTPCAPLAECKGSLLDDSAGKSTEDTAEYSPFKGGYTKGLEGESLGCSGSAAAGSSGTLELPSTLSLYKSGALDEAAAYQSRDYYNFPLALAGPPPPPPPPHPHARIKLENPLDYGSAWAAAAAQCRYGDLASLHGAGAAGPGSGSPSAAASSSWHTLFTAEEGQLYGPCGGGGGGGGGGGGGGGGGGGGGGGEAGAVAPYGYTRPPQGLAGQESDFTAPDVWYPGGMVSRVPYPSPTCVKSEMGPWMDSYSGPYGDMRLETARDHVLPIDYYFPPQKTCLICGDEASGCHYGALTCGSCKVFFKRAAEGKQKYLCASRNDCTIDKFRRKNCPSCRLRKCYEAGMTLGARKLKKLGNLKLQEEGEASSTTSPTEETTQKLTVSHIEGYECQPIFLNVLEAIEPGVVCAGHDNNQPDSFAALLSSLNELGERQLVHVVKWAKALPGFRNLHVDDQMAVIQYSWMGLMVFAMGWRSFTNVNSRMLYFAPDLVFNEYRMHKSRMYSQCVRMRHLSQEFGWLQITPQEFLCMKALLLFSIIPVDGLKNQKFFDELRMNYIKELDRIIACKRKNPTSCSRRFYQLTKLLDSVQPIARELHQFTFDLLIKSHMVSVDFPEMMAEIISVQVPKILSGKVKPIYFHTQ
Method: as §1

Phosphodiesterase PDE3 = test: Receptor binding assay panel: Phosphodiesterase PDE3; format: biochemical, Human; settings: 10 μM
HMG-CoA Reductase = HMG-CoA Reductase (Homo sapiens (Human), UniProt P04035); test: Receptor binding assay panel: HMG-CoA Reductase; format: biochemical
Sequence of HMG-CoA Reductase (P04035 426-888): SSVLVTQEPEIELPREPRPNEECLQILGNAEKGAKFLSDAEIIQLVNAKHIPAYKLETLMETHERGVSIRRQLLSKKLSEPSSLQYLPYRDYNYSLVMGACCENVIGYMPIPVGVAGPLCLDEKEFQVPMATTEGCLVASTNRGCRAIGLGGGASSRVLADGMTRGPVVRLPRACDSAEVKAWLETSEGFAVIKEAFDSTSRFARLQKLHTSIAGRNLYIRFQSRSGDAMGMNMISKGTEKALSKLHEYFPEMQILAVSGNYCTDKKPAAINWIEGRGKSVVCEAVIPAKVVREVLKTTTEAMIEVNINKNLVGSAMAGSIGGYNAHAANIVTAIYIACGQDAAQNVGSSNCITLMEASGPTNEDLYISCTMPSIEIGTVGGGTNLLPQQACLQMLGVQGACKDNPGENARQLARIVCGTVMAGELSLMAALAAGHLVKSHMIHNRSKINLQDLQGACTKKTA

Opiate μ (OP3, MOP) = Opiate μ (OP3, MOP) (Homo sapiens (Human), UniProt P35372); test: Receptor binding assay panel: Opiate μ (OP3, MOP)
Method: as §1

Muscarinic M5 = Muscarinic M5 (Homo sapiens (Human), UniProt P08912); test: Receptor binding assay panel: Muscarinic M5
Method: as §1

Muscarinic M2 = Muscarinic M2 (Homo sapiens (Human), UniProt P08172); test: Receptor binding assay panel: Muscarinic M2
Method: as §1

GABAA, Muscimol, Central = test: Receptor binding assay panel: GABAA, Muscimol, Central; design: species or system rat; settings: 10 μM
Method: as §1

[3] = biological target: Transporter, Norepinephrine (NET) (Homo sapiens (Human), UniProt P23975); test: Receptor binding assay panel: Transporter, Norepinephrine (NET)
Method: as §1

Sodium Channel, Site 2 = test: Receptor binding assay panel: Sodium Channel, Site 2; design: species or system rat; settings: 10 μM
[4] = biological target: Protein Tyrosine Kinase, ABL1 (Homo sapiens (Human), UniProt P00519); test: Receptor binding assay panel: Protein Tyrosine Kinase, ABL1; format: biochemical
[5] = test system: GABAA, Flunitrazepam, Central; test: Receptor binding assay panel: GABAA, Flunitrazepam, Central; design: species or system rat; settings: 10 μM
Method: as §1

[6] = biological target: Peptidase, Angiotensin Converting Enzyme (Oryctolagus cuniculus (Rabbit), UniProt P12822); test: Receptor binding assay panel: Peptidase, Angiotensin Converting Enzyme; format: biochemical
Sequence of Peptidase, Angiotensin Converting Enzyme (P12822 34-1310): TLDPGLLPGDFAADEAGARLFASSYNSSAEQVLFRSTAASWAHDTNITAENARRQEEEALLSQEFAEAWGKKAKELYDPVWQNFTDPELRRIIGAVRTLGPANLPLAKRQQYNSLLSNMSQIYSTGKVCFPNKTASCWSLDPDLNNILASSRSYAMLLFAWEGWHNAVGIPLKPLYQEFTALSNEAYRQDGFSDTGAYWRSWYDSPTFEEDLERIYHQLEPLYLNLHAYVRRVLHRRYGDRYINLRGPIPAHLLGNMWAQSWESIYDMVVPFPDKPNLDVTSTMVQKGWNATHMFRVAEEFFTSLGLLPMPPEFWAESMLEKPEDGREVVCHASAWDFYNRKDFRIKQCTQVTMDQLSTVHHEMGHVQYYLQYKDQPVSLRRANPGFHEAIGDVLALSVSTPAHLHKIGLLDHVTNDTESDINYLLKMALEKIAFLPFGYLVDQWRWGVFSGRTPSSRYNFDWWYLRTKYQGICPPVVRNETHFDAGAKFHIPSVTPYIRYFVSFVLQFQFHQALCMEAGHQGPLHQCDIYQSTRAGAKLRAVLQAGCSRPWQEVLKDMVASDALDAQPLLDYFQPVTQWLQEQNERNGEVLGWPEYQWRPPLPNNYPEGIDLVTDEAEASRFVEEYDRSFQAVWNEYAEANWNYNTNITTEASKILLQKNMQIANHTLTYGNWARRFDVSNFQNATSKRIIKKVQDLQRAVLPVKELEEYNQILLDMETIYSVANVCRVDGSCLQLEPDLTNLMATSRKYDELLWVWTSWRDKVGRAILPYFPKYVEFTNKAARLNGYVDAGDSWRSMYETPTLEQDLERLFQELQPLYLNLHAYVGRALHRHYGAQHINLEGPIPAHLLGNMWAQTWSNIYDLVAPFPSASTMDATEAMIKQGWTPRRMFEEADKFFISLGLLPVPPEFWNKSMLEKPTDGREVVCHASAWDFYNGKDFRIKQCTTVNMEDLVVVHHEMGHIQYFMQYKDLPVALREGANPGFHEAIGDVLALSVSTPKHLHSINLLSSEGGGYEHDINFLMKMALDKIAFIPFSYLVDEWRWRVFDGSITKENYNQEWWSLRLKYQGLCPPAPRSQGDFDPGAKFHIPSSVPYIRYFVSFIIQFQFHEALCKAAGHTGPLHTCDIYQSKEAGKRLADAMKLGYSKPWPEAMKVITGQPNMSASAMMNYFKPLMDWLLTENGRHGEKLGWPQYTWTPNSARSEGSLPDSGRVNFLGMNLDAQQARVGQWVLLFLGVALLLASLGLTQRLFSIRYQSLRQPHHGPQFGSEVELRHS

Dopamine D2s = Dopamine D2s (Homo sapiens (Human), UniProt P14416); test: Receptor binding assay panel: Dopamine D2s
[7] = after 15 min IV infusion 0.2 mg/kg/min
[8] = after 30 min IV infusion 0.2 mg/kg/min

Sequence of Estrogen ERβ (Q92731 whole entry): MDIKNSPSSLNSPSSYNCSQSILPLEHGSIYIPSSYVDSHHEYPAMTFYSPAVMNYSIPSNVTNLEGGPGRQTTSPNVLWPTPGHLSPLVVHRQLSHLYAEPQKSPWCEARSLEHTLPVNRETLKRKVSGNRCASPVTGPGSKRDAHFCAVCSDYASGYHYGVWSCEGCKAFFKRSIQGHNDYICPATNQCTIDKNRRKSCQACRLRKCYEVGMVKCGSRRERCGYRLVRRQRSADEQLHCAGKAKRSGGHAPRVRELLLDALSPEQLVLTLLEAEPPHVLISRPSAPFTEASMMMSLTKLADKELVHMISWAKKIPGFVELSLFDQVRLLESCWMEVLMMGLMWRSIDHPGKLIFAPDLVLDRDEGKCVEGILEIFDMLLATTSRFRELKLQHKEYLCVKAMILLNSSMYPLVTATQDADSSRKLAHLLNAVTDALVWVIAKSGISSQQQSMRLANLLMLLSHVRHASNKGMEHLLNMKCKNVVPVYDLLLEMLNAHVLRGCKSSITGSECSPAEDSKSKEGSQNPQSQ

Structure (SMILES): C[C@]12CC[C@H](CC(=O)O)CC1C(O)CC1C2CC[C@]2(C)C(=O)CCC12 (stereo in doubt) [CVie216-salt, 2-(6beta-hydroxy-17-oxoandrostane-3-yl) acetic acid]
- inhibition at 10 µM (Estrogen ERβ): -6%
- inhibition at 10 µM (Adrenergic α1B): 6%
- inhibition at 10 µM (Sigma σ2): 4%
- inhibition at 10 µM (Adenosine A1): -1%
- inhibition at 10 µM (hERG potassium channel): 0%
- inhibition at 10 µM [1]: 2%
- % inhib [2]: −20%
- diastolic function (in words) (STZ diabetic rats; IV infusion): ameliorated diastolic function
- overall cardiac function, SV and CO (in words) (STZ diabetic rats; IV infusion): improvement
- A late filling velocity of mitral inflow (STZ diabetic rats; [7]): 0.66 ± 0.17 m/s
- CO cardiac output (STZ diabetic rats; [7]): 165.45 ± 30.9 mL/min
- DT deceleration time of E wave (STZ diabetic rats; [7]): 49.72 ± 12.56 ms
- DT/E mitral deceleration index (STZ diabetic rats; [7]): 56.52 ± 16.45 s2/m
- E early filling velocity of mitral inflow (STZ diabetic rats; [7]): 0.90 ± 0.13 m/s
- E/A index of LV function (STZ diabetic rats; [7]): 1.42 ± 0.28
- E/DT deceleration slope (STZ diabetic rats; [7]): 19.76 ± 8.27 m/s2
- E/e′ index of LV filling pressure (STZ diabetic rats; [7]): 39.08 ± 5.04
- FS fractional shortening (STZ diabetic rats; [7]): 56.29 ± 9.95%
- HR heart rate (STZ diabetic rats; [7]): 221 ± 50 beat/min
- SV stroke volume (STZ diabetic rats; [7]): 0.76 ± 0.12 ml/beat
- a′ TDI late relaxation velocity (STZ diabetic rats; [7]): 25.85 ± 6.98 cm/s
- e′ TDI early relaxation velocity (STZ diabetic rats; [7]): 23.1 ± 1.96 cm/s
- s′ TDI contraction velocity (STZ diabetic rats; [7]): 22.47 ± 2.45 cm/s
- A late filling velocity of mitral inflow (STZ diabetic rats; [8]): 0.68 ± 0.15 m/s
- CO cardiac output (STZ diabetic rats; [8]): 181.82 ± 23.75 mL/min
- DT deceleration time of E wave (STZ diabetic rats; [8]): 47.46 ± 10.17 ms
- DT/E mitral deceleration index (STZ diabetic rats; [8]): 54.8 ± 12.84 s2/m
- E early filling velocity of mitral inflow (STZ diabetic rats; [8]): 0.87 ± 0.09 m/s
- E/A index of LV function (STZ diabetic rats; [8]): 1.34 ± 0.27
- E/DT deceleration slope (STZ diabetic rats; [8]): 19.38 ± 5.39 m/s2
- E/e′ index of LV filling pressure (STZ diabetic rats; [8]): significantly reduced
- FS fractional shortening (STZ diabetic rats; [8]): 55.19 ± 7.32%
- HR heart rate (STZ diabetic rats; [8]): 225 ± 50 beat/min
- SV stroke volume (STZ diabetic rats; [8]): 0.83 ± 0.15 ml/beat
- a′ TDI late relaxation velocity (STZ diabetic rats; [8]): 26.66 ± 6.94 cm/s
- e′ TDI early relaxation velocity (STZ diabetic rats; [8]): 24.48 ± 2.1 cm/s
- s′ TDI contraction velocity (STZ diabetic rats; [8]): 22.68 ± 3.18 cm/s
- inhibition at 10 µM (Aldosterone): -3%
- inhibition at 10 µM (Androgen (Testosterone)): 6%
- % inhib (Phosphodiesterase PDE3): −25%
- inhibition at 10 µM (HMG-CoA Reductase): -4%
- inhibition at 10 µM (Opiate μ (OP3, MOP)): 11%
- inhibition at 10 µM (Muscarinic M5): 0%
- inhibition at 10 µM (Muscarinic M2): -20%
- % inhib (GABAA, Muscimol, Central): 2%
- inhibition at 10 µM [3]: -4%
- % inhib (Sodium Channel, Site 2): −5%
- inhibition at 10 µM [4]: 13%
- % inhib [5]: 1%
- inhibition at 10 µM [6]: 7%
- inhibition at 10 µM (Dopamine D2s): -4%
